According to PubChem BioAssay AID248 (DTP/NCI, 2004):
Inconclusive results and toxic doses are left out.

System: L1210 leukemia ip in BDF1 mice, survival T/C
Experiment: NCI In Vivo Anticancer Drug Screen. Data for tumor model L1210 Leukemia (intraperitoneal) in B6D2F1 (BDF1) mice
Conditions: endpoint: mean survival time, higher = longer survival
Outline: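 Ratio derived from survival: compound-dosed mice over vehicle-dosed mice, all bearing a transplantable tumor.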

[1] = dose: 100.0 mg/kg/injection, schedule: Q01DX001 (ip), vehicle: saline with Tween-80
[2] = dose: 100.0 mg/kg/injection, schedule: Q01DX009 (ip), vehicle: saline with Tween-80
[3] = dose: 100.0 mg/kg/injection, schedule: Q04DX003 (ip), vehicle: saline with Tween-80
[4] = dose: 200.0 mg/kg/injection, schedule: Q01DX001 (ip), vehicle: saline with Tween-80
[5] = dose: 200.0 mg/kg/injection, schedule: Q01DX009 (ip), vehicle: saline with Tween-80
[6] = dose: 200.0 mg/kg/injection, schedule: Q04DX003 (ip), vehicle: saline with Tween-80
[7] = dose: 400.0 mg/kg/injection, schedule: Q01DX001 (ip), vehicle: saline with Tween-80
[8] = dose: 400.0 mg/kg/injection, schedule: Q01DX009 (ip), vehicle: saline with Tween-80
[9] = dose: 400.0 mg/kg/injection, schedule: Q04DX003 (ip), vehicle: saline with Tween-80
[10] = dose: 100.0 mg/kg/injection, schedule: Q01DX009 (ip), vehicle: Klucel (hydroxypropylcellulose) (HPC)
[11] = dose: 200.0 mg/kg/injection, schedule: Q01DX009 (ip), vehicle: Klucel (hydroxypropylcellulose) (HPC)
[12] = dose: 400.0 mg/kg/injection, schedule: Q01DX009 (ip), vehicle: Klucel (hydroxypropylcellulose) (HPC)
[13] = dose: 25.0 mg/kg/injection, schedule: Q01DX009 (ip), vehicle: other
[14] = dose: 100.0 mg/kg/injection, schedule: Q01DX009 (ip), vehicle: other

## CCOC1=C(N2CC2)C(=O)C(OCC)=C(N2CC2)C1=O
dose: 0.1 mg/kg/injection, schedule: Q01DX009 (ip), vehicle: saline
  T/C: 109 % of control
dose: 0.1 mg/kg/injection, schedule: Q01DX Z (ip), vehicle: carboxymethylcellulose (CMC)
  T/C: 105 % of control
dose: 0.25 mg/kg/injection, schedule: Q01DX001 (ip), vehicle: saline
  T/C: 105 % of control
dose: 0.25 mg/kg/injection, schedule: Q01DX009 (ip), vehicle: saline
  T/C: 107 % of control
dose: 0.25 mg/kg/injection, schedule: Q01DX Z (ip), vehicle: saline
  T/C: 118 % of control
dose: 0.3 mg/kg/injection, schedule: Q01DX Z (ip), vehicle: carboxymethylcellulose (CMC)
  T/C: 105 % of control
dose: 0.31 mg/kg/injection, schedule: Q01DX Z (ip), vehicle: saline
  T/C: 110 % of control
dose: 0.47 mg/kg/injection, schedule: Q01DX Z (ip), vehicle: saline
  T/C: 121 % of control
dose: 0.5 mg/kg/injection, schedule: Q01DX001 (ip), vehicle: saline
  T/C: 103 % of control
dose: 0.5 mg/kg/injection, schedule: Q01DX009 (ip), vehicle: saline
  T/C: 109 % of control
dose: 0.5 mg/kg/injection, schedule: Q01DX Z (ip), vehicle: saline
  T/C: 118 % of control
dose: 0.7 mg/kg/injection, schedule: Q01DX Z (ip), vehicle: saline
  T/C: 121 % of control
dose: 1.0 mg/kg/injection, schedule: Q01DX001 (ip), vehicle: saline
  T/C: 107 % of control
dose: 1.0 mg/kg/injection, schedule: Q01DX009 (ip), vehicle: saline
  T/C: 121 % of control
dose: 1.0 mg/kg/injection, schedule: Q01DX Z (ip), vehicle: saline
  T/C: 157 % of control
dose: 2.0 mg/kg/injection, schedule: Q01DX001 (ip), vehicle: saline
  T/C: 118 % of control
dose: 4.0 mg/kg/injection, schedule: Q01DX Z (ip), vehicle: saline
  T/C: 94 % of control
dose: 5.0 mg/kg/injection, schedule: Q01DX001 (ip), vehicle: saline
  T/C: 158 % of control
dose: 5.0 mg/kg/injection, schedule: Q01DX Z (ip), vehicle: methylcellulose (MC)
  T/C: 102 % of control
dose: 10.0 mg/kg/injection, schedule: Q01DX001 (ip), vehicle: saline
  T/C: 103 % of control

## CCCCN(CC)/N=N/c1nc[nH]c1C(N)=O
[1]
  T/C: 95 % of control
[2]
  T/C: 117 % of control
[3]
  T/C: 94 % of control
[4]
  T/C: 101 % of control
[5]
  T/C: 124 % of control
[6]
  T/C: 110 % of control
[7]
  T/C: 116 % of control
[8]
  T/C: 88 % of control
[9]
  T/C: 103 % of control

## CC1CC2C(CC1=O)C(C)(C)CCC2(C)C (configuration not stated)
[10]
  T/C: 92 % of control
[11]
  T/C: 94 % of control
dose: 200.0 mg/kg/injection, schedule: Q04DX003 (ip), vehicle: Klucel (hydroxypropylcellulose) (HPC)
  T/C: 107 % of control
[12]
  T/C: 90 % of control
dose: 400.0 mg/kg/injection, schedule: Q04DX003 (ip), vehicle: Klucel (hydroxypropylcellulose) (HPC)
  T/C: 91 % of control

## Oc1ccc(O)c(CCCCCc2cc(O)ccc2O)c1
[13]
  T/C: 106 % of control
dose: 50.0 mg/kg/injection, schedule: Q01DX009 (ip), vehicle: other
  T/C: 98 % of control
[1]
  T/C: 104 % of control
[14]
  T/C: 97 % of control
[4]
  T/C: 100 % of control
[7]
  T/C: 100 % of control

## O=C(Nc1cccc(Br)c1)c1cc(Cl)cc(Cl)c1Br
dose: 87.5 mg/kg/injection, schedule: Q04DX003 (ip), vehicle: saline with Tween-80
  T/C: 105 % of control
dose: 175.0 mg/kg/injection, schedule: Q04DX003 (ip), vehicle: saline with Tween-80
  T/C: 97 % of control
dose: 350.0 mg/kg/injection, schedule: Q04DX003 (ip), vehicle: saline with Tween-80
  T/C: 97 % of control

## O=[N+]([O-])c1cccc(OCCCOc2ccccc2)c1
[14]
  T/C: 100 % of control
dose: 200.0 mg/kg/injection, schedule: Q01DX009 (ip), vehicle: other
  T/C: 92 % of control
dose: 400.0 mg/kg/injection, schedule: Q01DX009 (ip), vehicle: other
  T/C: 103 % of control

## CC(=O)CC(=O)Nc1cccnc1
dose: 100.0 mg/kg/injection, schedule: Q01DX001 (ip), vehicle: carboxymethylcellulose (CMC)
  T/C: 100 % of control
dose: 200.0 mg/kg/injection, schedule: Q01DX001 (ip), vehicle: carboxymethylcellulose (CMC)
  T/C: 96 % of control
dose: 400.0 mg/kg/injection, schedule: Q01DX001 (ip), vehicle: carboxymethylcellulose (CMC)
  T/C: 100 % of control

## COC(=O)c1nn2c(=O)c3cccc4cccc(c43)c2c1C(=O)OC
[10]
  T/C: 95 % of control
[11]
  T/C: 98 % of control
[12]
  T/C: 100 % of control

## CC1(C)C(=NO)C(C)(C)C1=NO
dose: 12.5 mg/kg/injection, schedule: Q01DX009 (ip), vehicle: Klucel (hydroxypropylcellulose) (HPC)
  T/C: 105 % of control
dose: 12.5 mg/kg/injection, schedule: Q04DX003 (ip), vehicle: Klucel (hydroxypropylcellulose) (HPC)
  T/C: 108 % of control
dose: 25.0 mg/kg/injection, schedule: Q01DX009 (ip), vehicle: Klucel (hydroxypropylcellulose) (HPC)
  T/C: 106 % of control
dose: 50.0 mg/kg/injection, schedule: Q04DX003 (ip), vehicle: Klucel (hydroxypropylcellulose) (HPC)
  T/C: 104 % of control

## C#CCSC(=S)NNc1ccccc1
[2]
  T/C: 95 % of control
[3]
  T/C: 101 % of control
[5]
  T/C: 97 % of control
[6]
  T/C: 97 % of control
[9]
  T/C: 93 % of control

## OCC1C(CO)C2CC1C1N=NN(c3ccccc3)C21 (configuration not stated)
dose: 100.0 mg/kg/injection, schedule: Q04DX002 (ip), vehicle: saline with Tween-80
  T/C: 93 % of control
dose: 200.0 mg/kg/injection, schedule: Q04DX002 (ip), vehicle: saline with Tween-80
  T/C: 90 % of control
dose: 400.0 mg/kg/injection, schedule: Q04DX002 (ip), vehicle: saline with Tween-80
  T/C: 93 % of control

## Cc1ccc(C#N)s1
dose: 3.12 mg/kg/injection, schedule: Q01DX009 (ip), vehicle: other
  T/C: 98 % of control
dose: 6.25 mg/kg/injection, schedule: Q01DX009 (ip), vehicle: other
  T/C: 104 % of control
dose: 12.5 mg/kg/injection, schedule: Q01DX009 (ip), vehicle: other
  T/C: 98 % of control
dose: 16.0 mg/kg/injection, schedule: Q04DX003 (ip), vehicle: saline
  T/C: 102 % of control
[13]
  T/C: 106 % of control
dose: 25.0 mg/kg/injection, schedule: Q04DX003 (ip), vehicle: saline
  T/C: 117 % of control

## CN1CCN=C1c1ccc(NC(=O)c2ccc(C(=O)Nc3ccc(C4=NCCN4C)cc3)c(Cl)c2)cc1
dose: 1.5 mg/kg/injection, schedule: Q01DX Z (ip), vehicle: water
  T/C: 101 % of control
dose: 3.0 mg/kg/injection, schedule: Q01DX Z (ip), vehicle: water
  T/C: 103 % of control
dose: 6.0 mg/kg/injection, schedule: Q01DX Z (ip), vehicle: water
  T/C: 119 % of control

## CC(C)CCC[C@@H](C)[C@H]1CC[C@H]2[C@@H]3CC[C@H]4C[C@H](NC(=O)N(CCCl)N=O)CC[C@]4(C)[C@H]3CC[C@]12C
dose: 10.0 mg/kg/injection, schedule: Q01DX001 (ip), vehicle: other
  T/C: 103 % of control
dose: 23.0 mg/kg/injection, schedule: Q01DX001 (ip), vehicle: other
  T/C: 95 % of control
dose: 46.0 mg/kg/injection, schedule: Q01DX001 (ip), vehicle: other
  T/C: 104 % of control
dose: 93.0 mg/kg/injection, schedule: Q01DX001 (ip), vehicle: other
  T/C: 103 % of control
dose: 187.0 mg/kg/injection, schedule: Q01DX001 (ip), vehicle: other
  T/C: 103 % of control
dose: 375.0 mg/kg/injection, schedule: Q01DX001 (ip), vehicle: other
  T/C: 110 % of control
dose: 500.0 mg/kg/injection, schedule: Q01DX001 (ip), vehicle: other
  T/C: 104 % of control
dose: 1000.0 mg/kg/injection, schedule: Q01DX001 (ip), vehicle: other
  T/C: 119 % of control

## CCOc1ccc(NC(=O)CCN2CCC(O)(c3ccccc3)CC2)cc1
[2]
  T/C: 96 % of control
[3]
  T/C: 103 % of control
[5]
  T/C: 86 % of control
[6]
  T/C: 100 % of control
[8]
  T/C: 91 % of control
[9]
  T/C: 95 % of control
